Reference: article doi:10.1101/2025.04.10.648175v1 (biorxiv, 2025)

Experiments:
AzoTag1 = assay: isothermal titration calorimetry; type: binding; conditions: 20 mM HEPES-NaOH, 150 mM NaCl, pH 7.5, 25 °C, 0.5% DMSO; one-site model
AzoTag16 = assay: isothermal titration calorimetry; type: binding; conditions: 20 mM HEPES-NaOH, 150 mM NaCl, pH 7.5, 25 °C, 0.8% DMSO; one-site model

Compound | Kd (AzoTag1) [µM] | Kd (AzoTag16) [µM]
CCNC(=O)c1cc(F)c(/N=N\c2c(F)cc(C(=O)NCCOCCOCC(=O)NC)cc2F)c(F)c1 [compound 1, cis-Et-FAzo] | 0.805 ± 0.0226 | 
CNC(=O)COCCOCCNC(=O)c1cc(F)c(/N=N\c2c(F)cc(C(=O)NCCC(=O)O)cc2F)c(F)c1 [compound 2, cis-Ca-FAzo] |  | 0.01403 ± 2e-05
